Blank lines part the entries; values can stand above or below the compound they belong to.
What was measured:
[1] = Lipophilicity, log P of the compound at pH 7.4; format: physicochemical; conditions: buffer
Rattus norvegicus [2] = test: Decrease in alcohol intake in rat model of voluntary heavy drinking assessed as decrease in relapse phenomenon after period of abstinence at 500 uM, icv administered twice relative to control; format: functional; design: scale not given: the % may be the effect or the level left
Rattus norvegicus [3] = test: Decrease in alcohol intake in rat model of voluntary heavy drinking assessed as decrease in operant alcohol self-administration at 500 uM, icv administered twice relative to control; format: functional; design: scale not given: the % may be the effect or the level left
[4] = Half life in human at 2 mg/m2 dosed twice a week; format: ADME, organism-based; conditions: in vivo
Brain [5] = test: Drug uptake in iv dosed baboon brain after 90 mins by PET imaging method relative to control; format: ADME, organism-based; conditions: papio anubis, in vivo, 1.5 h
[6] = Half life in human at 6 mg/m2, po; format: ADME
[7] = Lipophilicity, log D of the compound at pH 7.4; format: physicochemical; conditions: buffer
Rattus norvegicus [8] = test: Decrease in alcohol intake in rat model of voluntary heavy drinking assessed as decrease in motivation to consume alcohol at 500 uM, icv administered twice relative to control; format: functional; design: scale not given: the % may be the effect or the level left
Brain [9] = test: Drug uptake in iv dosed rat brain after 90 mins by PET imaging method relative to control; format: ADME, organism-based; conditions: in vivo, 1.5 h
Mus musculus [10] = test: Decrease in alcohol intake in C57BL/6J mouse at 50 mg/kg, ip relative to control; format: functional; design: scale not given: the % may be the effect or the level left
Mus musculus [11] = test: Decrease in alcohol intake in C57BL/6J mouse at 100 mg/kg, ip relative to control; format: functional; design: scale not given: the % may be the effect or the level left
Rattus norvegicus [12] = test: Decrease in alcohol intake in rat assessed as operant alcohol self-administration at 50 mg/kg, ip administered once in a week relative to control; format: functional; design: scale not given: the % may be the effect or the level left
Rattus norvegicus [13] = test: Decrease in alcohol intake in rat assessed as ethanol intake at 2 mg/kg, ip administered daily during last 3 days of 10 day period of two-bottel choice paradigm (reference value: 7 g/kg); format: functional
Histone deacetylase 2 = Histone deacetylase 2 (Homo sapiens, UniProt Q92769); test: Inhibition of full length 6His-tagged HDAC2 (unknown origin) expressed in baculovirus infected Sf9 insect cells incubated for 17 hrs in presence of FAM-labeled acetylated peptide substrate by fluorescence assay
Histone deacetylase 8 = molecular target: T1, Histone deacetylase 8 (Homo sapiens, UniProt Q9BY41); test: Inhibition of full length 6His-tagged HDAC8 (unknown origin) expressed in baculovirus infected Sf9 insect cells incubated for 17 hrs in presence of FAM-labeled acetylated peptide substrate by fluorescence assay
T1 sequence (Q9BY41 whole entry): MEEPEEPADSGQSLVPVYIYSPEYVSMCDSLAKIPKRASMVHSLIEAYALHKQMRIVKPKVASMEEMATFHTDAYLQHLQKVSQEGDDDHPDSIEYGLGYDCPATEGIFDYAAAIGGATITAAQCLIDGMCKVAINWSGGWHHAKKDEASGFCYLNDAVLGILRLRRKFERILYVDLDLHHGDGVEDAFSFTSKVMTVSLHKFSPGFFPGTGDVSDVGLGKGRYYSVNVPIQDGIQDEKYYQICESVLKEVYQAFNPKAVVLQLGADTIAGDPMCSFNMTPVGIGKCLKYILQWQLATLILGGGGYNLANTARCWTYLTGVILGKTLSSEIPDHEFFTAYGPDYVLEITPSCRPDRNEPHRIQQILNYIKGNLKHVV

Histone deacetylase 1 = Histone deacetylase 1 (Homo sapiens, UniProt Q13547); test: Inhibition of full length 6His-tagged HDAC1 (unknown origin) expressed in baculovirus infected Sf9 insect cells incubated for 17 hrs in presence of FAM-labeled acetylated peptide substrate by fluorescence assay
[14] = molecular target: T2, Protein deacetylase HDAC6 (Homo sapiens, UniProt Q9UBN7); test: Inhibition of full length 6His-tagged HDAC6 (unknown origin) expressed in baculovirus infected Sf9 insect cells incubated for 17 hrs in presence of FAM-labeled acetylated peptide substrate by fluorescence assay
T2 sequence (Q9UBN7 whole entry): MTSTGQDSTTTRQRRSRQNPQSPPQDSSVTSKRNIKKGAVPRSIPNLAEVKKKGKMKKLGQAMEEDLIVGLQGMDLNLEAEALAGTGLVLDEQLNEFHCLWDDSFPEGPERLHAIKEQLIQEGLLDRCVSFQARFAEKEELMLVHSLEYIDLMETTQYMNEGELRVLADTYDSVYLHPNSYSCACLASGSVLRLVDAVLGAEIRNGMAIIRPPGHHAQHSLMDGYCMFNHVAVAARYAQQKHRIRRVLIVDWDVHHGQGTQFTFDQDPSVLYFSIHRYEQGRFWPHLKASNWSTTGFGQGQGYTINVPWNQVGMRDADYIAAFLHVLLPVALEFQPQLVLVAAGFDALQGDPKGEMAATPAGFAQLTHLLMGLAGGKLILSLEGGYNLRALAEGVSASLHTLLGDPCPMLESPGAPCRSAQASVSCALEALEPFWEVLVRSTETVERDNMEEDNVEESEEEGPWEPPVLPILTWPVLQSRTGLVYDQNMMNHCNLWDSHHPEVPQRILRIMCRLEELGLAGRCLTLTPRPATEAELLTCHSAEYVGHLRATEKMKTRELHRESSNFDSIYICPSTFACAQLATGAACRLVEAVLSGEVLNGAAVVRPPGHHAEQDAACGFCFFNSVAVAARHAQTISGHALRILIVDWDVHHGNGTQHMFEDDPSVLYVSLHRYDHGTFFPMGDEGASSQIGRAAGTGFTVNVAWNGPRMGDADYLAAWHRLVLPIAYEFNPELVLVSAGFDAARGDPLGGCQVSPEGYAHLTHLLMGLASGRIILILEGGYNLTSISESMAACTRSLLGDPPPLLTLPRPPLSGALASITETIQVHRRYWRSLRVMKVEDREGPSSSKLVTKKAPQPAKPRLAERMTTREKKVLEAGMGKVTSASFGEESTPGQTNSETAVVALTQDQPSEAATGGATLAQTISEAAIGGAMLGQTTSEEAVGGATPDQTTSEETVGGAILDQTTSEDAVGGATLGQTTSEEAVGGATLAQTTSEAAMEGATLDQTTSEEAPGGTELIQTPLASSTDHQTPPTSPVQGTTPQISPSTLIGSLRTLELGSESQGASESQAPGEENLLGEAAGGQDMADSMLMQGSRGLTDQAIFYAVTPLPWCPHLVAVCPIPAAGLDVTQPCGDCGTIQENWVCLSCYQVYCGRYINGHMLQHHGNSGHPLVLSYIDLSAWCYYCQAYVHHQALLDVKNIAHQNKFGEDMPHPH

[15] = molecular target: T3, Polyamine deacetylase HDAC10 (Homo sapiens, UniProt Q969S8); test: Inhibition of C-terminal 6His-tagged HDAC10 (unknown origin) (632 to 669 residues) expressed in baculovirus infected Sf9 insect cells incubated for 17 hrs in presence of FAM-labeled acetylated peptide substrate by fluorescence assay
T3 sequence (Q969S8 whole entry): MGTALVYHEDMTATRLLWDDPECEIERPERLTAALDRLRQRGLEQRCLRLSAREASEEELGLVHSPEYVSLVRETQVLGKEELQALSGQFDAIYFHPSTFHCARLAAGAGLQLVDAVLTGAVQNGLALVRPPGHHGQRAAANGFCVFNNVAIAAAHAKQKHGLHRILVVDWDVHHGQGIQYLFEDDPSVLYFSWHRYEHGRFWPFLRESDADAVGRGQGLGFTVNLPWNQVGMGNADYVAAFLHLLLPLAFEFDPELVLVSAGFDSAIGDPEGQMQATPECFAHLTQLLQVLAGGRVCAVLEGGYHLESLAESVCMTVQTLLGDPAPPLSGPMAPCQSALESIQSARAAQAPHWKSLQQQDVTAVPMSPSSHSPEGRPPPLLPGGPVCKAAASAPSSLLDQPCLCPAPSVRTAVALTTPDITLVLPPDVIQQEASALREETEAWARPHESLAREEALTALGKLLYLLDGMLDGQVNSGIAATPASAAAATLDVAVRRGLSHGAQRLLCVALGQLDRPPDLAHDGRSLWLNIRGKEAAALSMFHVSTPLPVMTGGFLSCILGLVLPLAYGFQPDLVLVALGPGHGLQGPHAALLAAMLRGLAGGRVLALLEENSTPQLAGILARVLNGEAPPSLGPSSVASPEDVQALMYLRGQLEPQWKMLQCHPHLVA

Chain of Histone deacetylase 2 (Q92769 whole entry): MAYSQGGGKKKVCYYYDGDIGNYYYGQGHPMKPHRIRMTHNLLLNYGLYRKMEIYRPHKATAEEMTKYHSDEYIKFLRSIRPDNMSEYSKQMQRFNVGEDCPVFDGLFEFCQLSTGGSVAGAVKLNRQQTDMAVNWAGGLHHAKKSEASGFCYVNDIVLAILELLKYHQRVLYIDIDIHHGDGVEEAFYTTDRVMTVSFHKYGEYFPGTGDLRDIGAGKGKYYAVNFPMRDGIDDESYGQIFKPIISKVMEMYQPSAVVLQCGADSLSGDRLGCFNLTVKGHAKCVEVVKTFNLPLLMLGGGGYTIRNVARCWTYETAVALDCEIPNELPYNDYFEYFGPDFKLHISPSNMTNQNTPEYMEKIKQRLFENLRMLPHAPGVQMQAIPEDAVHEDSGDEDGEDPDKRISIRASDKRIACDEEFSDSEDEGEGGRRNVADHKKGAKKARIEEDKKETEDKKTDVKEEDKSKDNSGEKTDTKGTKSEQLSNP
Chain of Histone deacetylase 1 (Q13547 whole entry): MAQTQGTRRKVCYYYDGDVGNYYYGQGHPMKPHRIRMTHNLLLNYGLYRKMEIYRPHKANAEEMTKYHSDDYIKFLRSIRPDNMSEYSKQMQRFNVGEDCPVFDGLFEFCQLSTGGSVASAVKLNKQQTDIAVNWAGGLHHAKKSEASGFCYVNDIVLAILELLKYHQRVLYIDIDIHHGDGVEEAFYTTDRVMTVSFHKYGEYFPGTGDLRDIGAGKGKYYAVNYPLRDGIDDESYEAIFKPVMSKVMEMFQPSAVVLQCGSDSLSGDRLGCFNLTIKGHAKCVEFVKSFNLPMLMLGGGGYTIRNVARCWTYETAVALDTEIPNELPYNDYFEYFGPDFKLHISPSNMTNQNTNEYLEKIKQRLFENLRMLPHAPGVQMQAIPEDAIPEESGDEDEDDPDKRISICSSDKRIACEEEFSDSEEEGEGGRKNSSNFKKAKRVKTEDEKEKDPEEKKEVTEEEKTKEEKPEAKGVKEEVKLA

logD [1]: 2.5 | half-life [4]: 52 to 150 h | Drug uptake (Brain [5]): < 0.001% | half-life [6]: 33.9 h | logD [7]: 1.8 | Drug uptake (Brain [9]): < 0.1%
SMILES: Nc1ccccc1NC(=O)c1ccc(CNC(=O)OCc2cccnc2)cc1 [ENTINOSTAT]
Activity (Rattus norvegicus [2]): 50% | Activity (Rattus norvegicus [3]): 75% | Activity (Rattus norvegicus [8]): 25%

SMILES: O=C(CCCCCCC(=O)Nc1ccccc1)NO [VORINOSTAT]
Activity (Mus musculus [10]): 40% | Activity (Mus musculus [11]): 40% | Activity (Rattus norvegicus [12]): 20%

SMILES: CC(/C=C/C(=O)NO)=C\[C@@H](C)C(=O)c1ccc(N(C)C)cc1 [TRICHOSTATIN]
Activity (Rattus norvegicus [13]): <1 g/kg

IC50 (Histone deacetylase 2): > 30 µM | IC50 (Histone deacetylase 8): > 30 µM | IC50 (Histone deacetylase 1): > 30 µM | IC50 [14]: > 30 µM | IC50 [15]: > 30 µM
SMILES: Nc1ccccc1NC(=O)CCCCCCC(=O)Nc1cccc(-c2cn(-c3ccccc3)nn2)c1

From ChEMBL document CHEMBL4033774, “Class I HDAC Inhibitors: Potential New Epigenetic Therapeutics for Alcohol Use Disorder (AUD)” (J Med Chem, 2018)
